This passage reports IC50 and Ki results from BindingDB's records for doi:10.1021/jm0409019 (Institute of Chemical Sciences and Engineering, 2005).

Each structure is given as a SMILES string.

The target of test [1] is alpha-mannosidase (Canavalia ensiformis). Briefly: Concentration of compound inhibiting alpha-Mannosidase isolated from Jack bean.
Test [2] has the same target. Nature of the test: Binding affinity towards alpha-Mannosidase isolated from Jack bean.
The target is the same in test [3]. Briefly: Inhibition of alpha-Mannosidase isolated from Jack bean.
The target is the same in test [4]. Nature of the test: Binding affinity towards alpha-Mannosidase isolated from jack bean.

As a reminder, the IC50 is the midpoint of a concentration-inhibition curve. Higher therefore signals weaker potency in that assay. Usually Ki stands for a dissociation constant, usually derived from enzyme kinetics or from competition with a known ligand. High values mean weaker binding, low ones tighter binding. `O[C@H]1[C@@H](O)CN[C@@H]1CNC1CCc2ccccc21` (stereo partly drawn) [(2R,3R,4S)-2-((R)-Indan-1-ylaminomethyl)-pyrrolidine-3,4-diol]: in test [1], 17 µM corresponded to half-maximal inhibition (IC50). The Ki in test [2] came to 2.3 µM.

`O[C@H]1[C@@H](O)CN[C@@H]1CN[C@@H](c1ccccc1)[C@H](O)c1ccccc1` [(2R,3R,4S)-2-[((R)-Phenyl-1-(S)-2-hydroxy-2-phenyl-ethylamino)-methyl]-pyrrolidine-3,4-diol] displayed an IC50 in test [1] of 128 µM.

In test [1], `O=C(NCC(NC[C@H]1NC[C@H](O)[C@@H]1O)c1ccccc1)c1cccc(Br)c1` (stereo partly drawn) [3-Bromo-N-{2-[((2R,3R,4S)-3,4-dihydroxy-pyrrolidin-2-ylmethyl)-amino]-2-phenyl-ethyl}-benzamide] returned an IC50 of 89 µM.

In the case of `O[C@H]1[C@@H](O)CN[C@@H]1CNC(COCc1ccccc1)c1ccccc1` (stereo partly drawn) [(2R,3R,4S)-2-[((R)-2-Benzyloxy-1-phenyl-ethylamino)-methyl]-pyrrolidine-3,4-diol], in test [3], the IC50 stood at 58 µM. Also, in test [4], the affinity, expressed as Ki, was 16 µM.

`O[C@H]1[C@@H](O)CN[C@@H]1CN[C@H](c1ccccc1)[C@@H](O)c1ccccc1` [(2R,3R,4S)-2-[((S)-Phenyl-1-(R)-2-hydroxy-2-phenyl-ethylamino)-methyl]-pyrrolidine-3,4-diol] yielded an IC50 in test [1] of 110 µM.

In the case of `OCC(NC[C@H]1N[C@H](CO)[C@H](O)[C@@H]1O)c1ccccc1` (stereo partly drawn) [(2R,3S,4R,5R)-2-Hydroxymethyl-5-[((R)-2-hydroxy-1-phenyl-ethylamino)-methyl]-pyrrolidine-3,4-diol], it took 4.2 µM to reach half-maximal inhibition in test [1] (IC50). This compound gave a Ki in test [2] of 1.35 µM.
